Where a name gives a salt, the structure may show the parent alone. Read-outs that look alike come from different tables or passages of the source.
Legend:
[1] = target: His-tagged KRAS G12D protein (Homo sapiens (Human), UniProt P01116, G12D); test: KRAS G12D TR-FRET Assay; assay type: binding
Summary of the method: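 His-tagged KRAS G12D (diluted to 20 nM in pH 7.4 HEPES buffer with 10 mM MgCl2 and 10 μM GDP) was preincubated with titrated compound for 30 min at room temperature. Biotinylated KRPep-2d peptide (diluted to 20 nM) was then added for 1 h, and displacement was monitored by TR-FRET.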

[2] = target: GDP-bound KRAS protein (aa 1-169), containing both G12D and C118A amino acid substitutions (Homo sapiens (Human), UniProt P01116, C118A/G12D); test: KRAS G12D Coupled Nucleotide Exchange Assay; assay type: biochemical
[3] = test system: Phosphorylation of ERK1/2 in AsPC-1 cells; test: Phospho-ERK1/2 MSD Assay; assay type: cell-based, human; details: Homo sapiens, ASPC1, 2 h
Summary of the method: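 Read-out: MSD electrochemiluminescent detection of phosphorylated ERK1/2 in whole-cell lysates, fitted to a 4-parameter logistic curve for IC50. Prior to lysis, AsPC-1 cells (25,000 per well) received a 2 h compound dose-response at 37 °C.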

[4] = test system: AsPC-1 cells; test: AsPC-1 CTG Assay (CellTiter-Glo cell viability); assay type: cell-based, human; details: Homo sapiens, ASPC1, 72 h, first value of the cell, read-out: G12D/C/V Cell Proliferation CTG (72 h) AsPC-1
Description: AsPC-1 and SW620 CTG Assay Protocols
AsPC-1 (human pancreatic adenocarcinoma; ATCC CRL-1682) or SW620 (human colon adenocarcinoma; ATCC CCL-227) cells were cultured in RPMI 1640 medium containing 10% fetal bovine serum and 1× penicillin/streptomycin/L-glutamine. Cells were seeded in 384-well plates at a density of 3.33E+04 cells/mL and incubated at 37° C., 5% CO2, overnight. Serially-diluted compound or DMSO was added to the cells, and plates were incubated at 37° C., 5% CO2 for 72 h. Cell viability was measured using a CellTiter-Glo® Luminescent Cell Viability Assay kit (Promega) according to the manufacturer's protocol. The luminescence signal of treated samples was normalized to DMSO control, and data were analyzed using a 4-parameter logistic model to calculate IC50 values.

[5] = TR-FRET, read-out: KRAS G12D Binding
[6] = 2 hours compound pre-incubation, read-out: KRAS G12D Coupled Exchange
[7] = read-out: 2 h p-ERK (AsPC-1 cells)
[8] = read-out: KRAS G12D Binding IC50
[9] = read-out: KRAS G12D Coupled Exchange IC50
[10] = read-out: 2 h p-ERK (AsPC-1 cells), IC50

Sequence of His-tagged KRAS G12D protein (P01116 other isoform, or with tags, fused parts or gaps G12D): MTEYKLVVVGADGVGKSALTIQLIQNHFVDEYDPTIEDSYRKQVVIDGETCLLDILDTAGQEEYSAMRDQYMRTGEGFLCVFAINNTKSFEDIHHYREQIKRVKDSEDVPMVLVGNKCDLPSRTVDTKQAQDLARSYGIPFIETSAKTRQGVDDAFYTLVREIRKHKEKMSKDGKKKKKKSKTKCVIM
Sequence of GDP-bound KRAS protein (aa 1-169), containing both G12D and C118A amino acid substitutions (P01116 other isoform, or with tags, fused parts or gaps G12D/C118A): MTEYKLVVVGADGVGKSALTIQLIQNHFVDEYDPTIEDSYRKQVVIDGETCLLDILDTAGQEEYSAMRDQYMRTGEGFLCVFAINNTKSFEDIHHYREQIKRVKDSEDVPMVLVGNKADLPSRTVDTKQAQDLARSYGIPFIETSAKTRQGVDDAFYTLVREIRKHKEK

Row | IC50 [1, 5] | IC50 [2, 6] | IC50 [3, 7] | IC50 ([4]; AsPC-1 cells (G12D), 72 h) | IC50 [1, 8] | IC50 [2, 9] | IC50 [3, 10] | IC50 ([4]; AsPC-1, 72 h) | SMILES
1 | 10 nM | 6 nM | 22.3 nM | 109 nM |  |  |  |  | O=C1CCCCc2c(Cl)cc3[nH]ncc3c2-c2ncc3c(nc(OC[C@@]45CCCN4C[C@H](F)C5)nc3c2F)N2CCOCC(C2)C1O (mixture of isomers) [Example 384]
2 |  |  |  |  | 11 nM | 7 nM | 46 nM | 405 nM | C[C@@]12CCCN(C1)c1nc(OC[C@@]34CCCN3C[C@H](F)C4)nc3c(F)c(ccc13)-c1cc(O)cc3ccc(F)c(c13)CCC(F)C(=O)N2 (mixture of isomers) [Example 17, 2,2,2-trifluoroacetate salt]
3 |  |  |  |  | 13 nM | 8 nM | 363 nM | 5000 nM | C#CCO[C@@H]1CN2CCC[C@@]2(COc2nc3c4cnc(c(F)c4n2)-c2c(c(Cl)cc4[nH]ncc24)CCCOC(=O)O[C@@H]2COCCN3C2)C1 [Example 369, (26S)-18-Chloro-32-fluoro-4-(((2S,7aS)-2-(2-propyn-1-yloxy)tetrahydro-1H-pyrrolo[1,2-a]pyrrol-7a(5H)-yl)methoxy)-23,25,28-trioxa-1,3,5,9,14,15 hexaazahexacyclo[24.4.1.1˜6,10˜.0˜2,7˜.0˜11,19˜.0˜12,16˜]dotriaconta-2,4,6,8,10(32),11,13,16,18-nonaen-24-one]
4 |  |  |  |  | 6 nM | 3 nM | 58.1 nM | 545 nM | O=C1OCCc2c(Cl)cc3[nH]ncc3c2-c2ncc3c(nc(OC[C@@]45CCCN4C[C@@H](F)C5)nc3c2F)N2CCC[C@]3(C2)C[C@H](C3)O1 [Example 350, (1R,3S)-10-chloro-32-fluoro-24-(((2S,7aS)-2-fluorotetrahydro-1H-pyrrolo[1,2-a]pyrrol-7a(5H)-yl)methoxy)-4,6-dioxa-13,14,19,23,25,27-hexaazaheptacyclo[25.3.1.1~1,3~.1~18,22~.0~9,17~.0~12,16~.0~21,26~]tritriaconta-9,11,14,16,18(32),19,21,23,25-nonaen-5-one]
5 |  |  |  |  | 6 nM | 3 nM | 16.3 nM | 22 nM | C[C@@]12COCCN(C1)c1nc(OC[C@H]3CC[C@@H]4COCCN43)nc3c(F)c(ncc13)-c1c(c(Cl)cc3[nH]ncc13)CCCOC(=O)O2 [Example 308, (26S)-18-chloro-32-fluoro-4-((6R,8aR)-hexahydro-1H-pyrrolo[2,1-c][1,4]oxazin-6-ylmethoxy)-26-methyl-23,25,28-trioxa-1,3,5,9,14,15-hexaazahexacyclo[24.4.1.1~6,10~.0~2,7~.0~11,19~.0~12,16~]dotriaconta-2,4,6,8,10(32),11,13,16,18-nonaen-24-one]
6 |  |  |  |  | 68 nM | 63 nM | 4670 nM | 5000 nM | O=S1(=O)CCCCc2c(Cl)cc3[nH]ncc3c2-c2ncc3c(nc(OC[C@@]45CCCN4C[C@H](F)C5)nc3c2F)N2CCC[C@H](C2)C1 [Example 145]
7 |  |  |  |  | 5 nM | 3 nM | 15.4 nM | 115 nM | CN(C)CC1(COc2nc3c4cnc(c(F)c4n2)-c2c(c(Cl)cc4[nH]ncc24)CCCOC(=O)O[C@]2(C)COCCN3C2)CC1 (single isomer, unassigned) [Example 331]
8 |  |  |  |  | 11 nM | 3 nM | 250 nM | 1760 nM | O=C1COCCCc2c(Cl)cc3[nH]ncc3c2-c2ncc3c(nc(OC[C@@]45CCCN4C[C@H](F)C5)nc3c2F)N2CCCC[C@H](C2)N1 [Example 272, (27R)-18-chloro-33-fluoro-4-(((2R,7aS)-2-fluorotetrahydro-1H-pyrrolo[1,2-a]pyrrol-7a(5H)-yl)methoxy)-23-oxa-1,3,5,9,14,15,26-heptaazahexacyclo[25.4.1.1~6,10~.0~2,7~.0~11,19~.0~12,16~]tritriaconta-2,4,6,8,10(33),11,13,16,18-nonaen-25-one]
9 |  |  |  |  | 6 nM | 3 nM | 53.1 nM | 778 nM | O=C1CCCCc2c(Cl)cc3[nH]ncc3c2-c2ncc3c(nc(OC[C@@]45CCCN4C[C@H](F)C5)nc3c2F)N2C[C@@H](O)C[C@H](C2)N1 (racemic) [Example 275, (17R,19S)-9-chloro-30-fluoro-24-(((2R,7aS)-2-fluorotetrahydro-1H-pyrrolo[1,2-a]pyrrol-7a(5H)-yl)methoxy)-19-hydroxy-5,6,16,21,23,25,29-heptaazahexacyclo[24.3.1.1~17,21~.0~2,10~.0~3,7~.0~22,27~]hentriaconta-1(30),2,4,7,9,22,24,26,28-nonaen-15-one]
10 |  |  |  |  | 7 nM | 2 nM | 102 nM | 427 nM | O=C1NCCCc2c(Cl)cc3[nH]ncc3c2-c2ncc3c(nc(OC[C@@]45CCCN4C[C@H](F)C5)nc3c2F)N2CCCC[C@H](C2)O1 [Example 288]
11 | 3 nM | 2 nM | 180 nM | 639 nM |  |  |  |  | O=C1CCCCc2c(Cl)cc3[nH]ncc3c2-c2ncc3c(nc(OC[C@@]45CCCN4C[C@H](F)C5)nc3c2F)N2CC[C@@H]3[C@H](C2)N1CC3(F)F [Example 403, (28R,32R)-18-chloro-27,27,33-trifluoro-4-(((2R,7aS)-2-fluorotetrahydro-1H-pyrrolo[1,2-a]pyrrol-7a(5H)-yl)methoxy)-1,3,5,9,14,15,25-heptaazaheptacyclo[23.5.2.1~6,10~.0~2,7~.0~11,19~.0~12,16~.0~28,32~]tritriaconta-2,4,6,8,10(33),11,13,16,18-nonaen-24-one]
12 |  |  |  |  | 10 nM | 3 nM | 109 nM | 1180 nM | O=C1OC[C@H]2C[C@@H]2c2c(Cl)cc3[nH]ncc3c2-c2ncc3c(nc(OC[C@@]45CCCN4C[C@H](F)C5)nc3c2F)N2CCC[C@H](C2)O1 (mixture of isomers) [Example 113]
13 | 9 nM | 3 nM | 85.3 nM | 404 nM |  |  |  |  | CC12COCCN(C1)c1nc(OC[C@@]34CCCN3C[C@H](F)C4)nc3c(F)c(ncc13)-c1c(c(Cl)cc3[nH]ncc13)CCCc1nc2no1 (mixture of isomers) [Example 379]
14 | 21 nM | 4 nM | 261 nM | 1940 nM |  |  |  |  | O[C@@H]1C[C@@H]2COCCCCc3c(Cl)cc4[nH]ncc4c3-c3ncc4c(nc(OC[C@@]56CCCN5C[C@H](F)C6)nc4c3F)N(C1)C2 [Example 406, (17S,19R)-9-Chloro-30-fluoro-24-(((2R,7aS)-2-fluorotetrahydro-1H-pyrrolo[1,2-a]pyrrol-7a(5H)-yl)methoxy)-15-oxa-5,6,21,23,25,29-hexaazahexacyclo[24.3.1.1˜17,21˜.0˜2,10˜.0˜3,7˜.0˜22,27˜]hentriaconta-1(30),2,4,7,9,22,24,26,28-nonaen-19-ol]
15 |  |  |  |  | 4 nM | 2 nM | 17.1 nM | 178 nM | Cc1cc2[nH]ncc2c2c1CCCOC(=O)N[C@]1(C)CCCCN(C1)c1nc(OC[C@@]34CCCN3C[C@H](F)C4)nc3c(F)c-2ncc13 [Example 292, (26R)-32-fluoro-4-(((2R,7aS)-2-fluorotetrahydro-1H-pyrrolo[1,2-a]pyrrol-7a(5H)-yl)methoxy)-18,26-dimethyl-23-oxa-1,3,5,9,14,15,25-heptaazahexacyclo[24.4.1.1~6,10~.0~2,7~.0~11,19~.0~12,16~]dotriaconta-2,4,6(32),7,9,11,13,16,18-nonaen-24-one]

Reference: patent US20240294551A1 (AMGEN INC., priority 2022, published 2024)
